# Values quoted from earlier work, collected in US9808437B2, “Monounsaturated fatty acid compositions and use for treating atherosclerosis” (BURKE & BOYER NYC, priority 2014, dated 2017).
# System: ApoE-deficient mice
# Conditions: 20 mg/kg/day; control 21.9 ± 2.9; P<0.05
smiles,measurement,value
CC(C)c1nc(N(C)S(C)(=O)=O)nc(-c2ccc(F)cc2)c1/C=C/[C@@H](O)C[C@@H](O)CC(=O)O [Rosuvastatin],Aortic Lesion,11.9 ± 1.9 %
